Source: patent publication US12036282B2, “Liposomal system for drug delivery” (NewSouth Innovations PTY Limited, priority 2017, dated 2024)
{FAM} = fluorescein (FAM) label

Assay: Agarose gel electrophoresis of oligonucleotide after X-ray exposure
Type: physicochemical
Settings: X-ray 1, 2 and 4 Gy, compared with the control
Method: The PC12, HCT116 and CCD 841 CoN cells (1-4×10^4/mL) were, respectively, grown on 96-well plates in a culture medium with 10% FBS for 24 hr. For liposome and LipoDox treatment experiments, the PC12 cells and CCD 841 CoN cells were, respectively, incubated with different liposome and LipoDox samples for 4 hours, followed by incubation in a fresh medium for further 24 hours. For the X-ray exposure experiments, all three types of cells were radiated with 4 Gy, followed by incubation in a fresh medium for further 24 and 48 hours. Cell viability was assessed by using the same method as described above. For X-ray treatment of pure DNA molecules and mixture of DNA and verteporfin, 50 μL of antisense oligonucleotide solution (10 μg/mL) and 50 μL of mixture solution (10 μg/mL DNA and 32 μg/mL verteporfin) was respectively exposed to X-ray radiation with different dosage (1, 2 and 4 Gy). After treatment, the gel electrophoresis was carried out in 1.2% agarose gel in Tris-acetate-EDTA (TAE) buffer at 95 V for 45 min. The gel was stained with SYBR Safe DNA Gel Stain (Thermo Fisher) and photographed under UV light using a Bio-Rad imaging system.

## 5′-TGGTGCTTCCCAGCCACTAT-3′ (SEQ ID NO:1) (3' {FAM}, sugars by position and backbone not given here) [DNA molecules, antisense oligonucleotide against PAC1R gene, 10 μg/mL solution exposed to X-ray]
  damage to oligonucleotide after X-ray radiation (gel electrophoresis): did not cause obvious damage
